Results taken from ChEMBL document CHEMBL5113462, “Synthesis and evaluation of inhibitors of Mycobacterium tuberculosis UGM using bioisosteric replacement” (Bioorg Med Chem, 2022).

Legend:
[1] = target: T1, UDP-galactopyranose mutase (Mycobacterium tuberculosis, UniProt P9WIQ1); assay: Inhibition of Mycobacterium tuberculosis UGM expressed in Escherichia coli BL21(DE3) assessed as dissociation constant by fluorescence polarization assay
[2] = target: UDP-galactopyranose mutase (Klebsiella pneumoniae) (UniProt Q48485); assay: Inhibition of Klebsiella pneumoniae UGM expressed in Escherichia coli BL21(DE3) at 500 uM by Fluorescence polarization assay relative to control
[3] = target: UDP-galactopyranose mutase (Klebsiella pneumoniae, UniProt Q48485); assay: Inhibition of Klebsiella pneumoniae UGM expressed in Escherichia coli BL21(DE3) assessed as dissociation constant by fluorescence polarization assay
[4] = target: UDP-galactopyranose mutase (Mycobacterium tuberculosis) (UniProt P9WIQ1); assay: Inhibition of Mycobacterium tuberculosis UGM expressed in Escherichia coli BL21(DE3) at 500 uM by Fluorescence polarization assay relative to control
[5] = target: UDP-galactopyranose mutase (Mycobacterium tuberculosis) (UniProt P9WIQ1); assay: Inhibition of Mycobacterium tuberculosis UGM expressed in Escherichia coli BL21(DE3) assessed as formation of UDP-galactopyranose at 500 uM preincubated for 5 min followed by substrate addition and measured after 1 to 3 mins using UDP-galactofuranose as substrate by HPLC analysis relative to control; conditions: time 6-8 min
[6] = target: T1, UDP-galactopyranose mutase; assay: Inhibition of Mycobacterium tuberculosis UGM expressed in Escherichia coli BL21(DE3) assessed as dissociation constant by SPR analysis

Sequence of UDP-galactopyranose mutase (Klebsiella pneumoniae) (Q48485 whole entry): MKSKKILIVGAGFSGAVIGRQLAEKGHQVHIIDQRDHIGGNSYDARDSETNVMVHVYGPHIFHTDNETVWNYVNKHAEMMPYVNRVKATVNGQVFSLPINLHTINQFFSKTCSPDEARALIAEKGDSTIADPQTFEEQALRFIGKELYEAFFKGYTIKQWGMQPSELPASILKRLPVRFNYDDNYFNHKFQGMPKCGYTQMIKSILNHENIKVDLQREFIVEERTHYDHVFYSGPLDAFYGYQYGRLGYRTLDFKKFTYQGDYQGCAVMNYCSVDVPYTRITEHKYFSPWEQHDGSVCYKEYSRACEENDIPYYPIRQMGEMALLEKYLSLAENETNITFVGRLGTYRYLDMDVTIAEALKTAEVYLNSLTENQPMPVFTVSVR
Sequence of UDP-galactopyranose mutase (Klebsiella pneumoniae, UniProt Q48485) (Q48485 whole entry): as above
T1 sequence (P9WIQ1 whole entry): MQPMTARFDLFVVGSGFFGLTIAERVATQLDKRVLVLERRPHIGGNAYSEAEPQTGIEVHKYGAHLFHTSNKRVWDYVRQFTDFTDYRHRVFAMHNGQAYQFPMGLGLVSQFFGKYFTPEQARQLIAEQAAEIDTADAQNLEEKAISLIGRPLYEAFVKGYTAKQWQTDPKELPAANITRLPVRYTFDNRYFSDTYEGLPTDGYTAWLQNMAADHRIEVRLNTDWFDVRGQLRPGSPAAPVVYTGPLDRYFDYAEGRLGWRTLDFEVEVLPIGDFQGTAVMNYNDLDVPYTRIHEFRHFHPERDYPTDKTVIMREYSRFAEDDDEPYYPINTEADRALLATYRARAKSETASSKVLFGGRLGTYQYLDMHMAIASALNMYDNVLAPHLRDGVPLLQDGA
Sequence of UDP-galactopyranose mutase (Mycobacterium tuberculosis) (P9WIQ1 whole entry, looked up): as the sequence (P9WIQ1 whole entry) above

Compound	Kd [1] [µM]	inhibition [2] [%]	Kd [3] [µM]	inhibition [4] [%]	inhibition [5] [%]	Kd [6] [µM]
O=C(/C=C/c1ccccc1)N[C@@H](Cc1ccccc1)C(=O)O	> 1000	59	> 1000	45		
COc1cc(/C=C/C(=O)N[C@@H](Cc2ccc(O)c(O)c2)C(=O)O)ccc1O				19		
O=C(/C=C/c1ccc(O)c(O)c1)N[C@@H](Cc1ccc(O)cc1)C(=O)O				18		
O=C(/C=C/c1ccccc1)N[C@@H](Cc1ccc([N+](=O)[O-])cc1)C(=O)O	401	59	231	62	35.2	
O=C(/C=C/c1ccc(O)c(O)c1)O[C@H](Cc1ccc(O)c(O)c1)C(=O)O [ROSMARINIC ACID]	653	46	69	48		
O=c1ccn([C@@H]2O[C@H](COP(=O)(O)OP(=O)(O)O)[C@@H](O)[C@H]2O)c(=O)[nH]1 [URIDINE_DIPHOSPHATE]	35	63	54	86	47.6	
O=C(/C=C/c1ccccc1)N[C@@H](Cc1ccc(O)cc1)C(=O)O				29		
O=C(/C=C/c1ccccc1)N[C@@H](Cc1ccc(F)cc1)C(=O)O	948	58	156	46		
O=C(/C=C/c1ccccc1)N[C@@H](Cc1ccc(I)cc1)C(=O)O	197	60	17	77	54.6	
O=C(/C=C/c1ccccc1)N[C@@H](Cc1ccc(Cl)cc1)C(=O)O	358	41	43	49	63.3	
O=C(/C=C/c1ccccc1)N[C@@H](Cc1ccc(Br)cc1)C(=O)O	63	59	58	82	87	105
